Assay results published in patent publication US20080057136A1, “Disinfecting Composition and Methods of Making and Using Same” (priority 2003, published 2008).
Values after ≈ are worked out from the molar mass of the structure shown. Values joined by “and” are separate entries in the source; they are usually repeats but may differ in a detail not shown here. Equal entries are not always repeated.

Legend:
T. rubrum ATCC 28188 [1] = test: NCCLS broth microdilution MIC and MFC (Example 10); assay type: cell-based, Trichophyton rubrum; conditions: Example 10; for MIC: 80% reduction in growth, amphotericin B complete inhibition; for MFC: 99.9% inhibition of growth; for fungicidal activity: MFC within 1 doubling dilution of the MIC
Procedure: (§3) Strains of E. coli (ATCC 11229), D. aeruginosa (ATCC 15442), S. aureus (ATCC 25923), S. epidermidis (ATCC 12228), S. pyogenes (ATCC 19615), C. albicans (ATCC 10231), and T. rubrum (ATCC 28188) were used as “challenge microorganisms” in this study. Strains were removed from frozen stock and subcultured twice on blood agar to ensure that the strains had optimal growth and metabolic status before testing.
(§4) Amphotericin B, fluconazole, and Hibiclens were added as comparative agents in the fungal panels.
(§5) For testing purposes, AMC, AMC components, and Hibiclens were diluted to 50% of the working solution to cover the proposed AMC use dilution of 20%.
(§6) Microtiter panels were created on the day of MIC testing. A 50 μl aliquot of Mueller-Hinton broth (for bacterial strains) or RPMI 1640 (for fungal strains) was delivered to each well, except those in column one of the microtiter panel. The working solution of AMC and each of its components, and comparative agents were delivered to the designated wells in column one. AMC, components, and comparators were serially diluted across the panel. A 50 μl aliquot of bacterial or fungal suspension was then added to each well on the microtiter panel, using a new pipette tip for each aliquot. Panels were incubated at 35° C. for 16-20 h for the E. coli, P. aeruginosa, and S. aureus strains, 20-24 h for the S. pyogenes strain, and 48 h for the C. albicans strain. T. rubrum panels were incubated for 3 to 4 days before MICs were read. […] Fungal MICs (%) were read using an 80% reduction in the growth endpoint relative to the turbidity of the growth control for AMC, its components, and fluconazole. For amphotericin B, the endpoint was read as the complete inhibition of growth.
(§7) MFCs were determined in a similar manner.
(§8) The endpoint for amphotericin B was read as complete inhibition of growth. The MIC % is expressed as g/100 ml or ml/100 ml. […] The MFC % is expressed as g/100 ml or ml/100 ml.

C. albicans ATCC 10231 [2] = test: NCCLS broth microdilution MIC and MFC (Example 11); assay type: cell-based, Candida albicans; conditions: for MIC: amphotericin B complete inhibition, terbinafine 50%/90%; for fungicidal activity: MFC within 1 doubling dilution of the MIC
Procedure: (§9) Strains of C. albicans (ATCC 10231) and T. rubrum (ATCC 28188) were tested in this study. Strains were removed from frozen stock and subcultured twice on blood agar to ensure that the strains had optimal growth and metabolic status before testing. Strains were tested by NCCLS broth microdilution (M27-A2, 2002) and challenged with AMC solution and its individual components […] ), and isopropanol. Amphotericin B, fluconazole, terbinafine, and Hibiclens were added as comparator compounds. […] Microtiter panels were created on the day of MIC testing. A 50 μl aliquot of RPMI 1640 was delivered to each well except those in column one of the microtiter panel. The working solution of AMC and each of its components, and comparative agents were delivered to the designated wells in column one; AMC, components, and comparators were serially diluted across the panel. A 50 μl aliquot of fungal suspension was then added to each well on the microtiter panel, using a new pipette tip for each aliquot. […] For amphotericin B, the endpoint was read as the complete inhibition of growth. […] MFCs were performed to determine the concentration at which ≧99% of the starting fungal inoculum was killed. […] After incubation, colony counts for each panel well plated were recorded. […] The endpoint for amphotericin B was read as complete inhibition of growth.

T. rubrum ATCC 28188 [3] = test: NCCLS broth microdilution MIC and MFC (Example 11); assay type: cell-based, Trichophyton rubrum; conditions: Example 11; for fungicidal activity: MFC within 1 doubling dilution of the MIC
Procedure: as §9

C. albicans ATCC 10231 [4] = test: NCCLS broth microdilution MIC and MFC (Example 10); assay type: cell-based, Candida albicans; conditions: for MIC: amphotericin B complete inhibition; for fungicidal activity: MFC within 1 doubling dilution of the MIC
Procedure: as §3, §4, §5, §6, §7, §8

T. rubrum = test: MIC and MBC determination by doubling dilutions (Study 509-102); assay type: cell-based, Trichophyton rubrum
From the text: (§1) Table 2 below indicates the stock dilutions for each test agent, and a breakdown of the resulting concentrations for each of the doubling dilutions performed is summarized in Table 3.
(§2) From the stock dilutions, an initial 1:10 dilution was made (representing tube 1), followed by doubling dilutions (tubes 2-12), as detailed in Table 3.

[5] = system: Trichophyton rubrum (ATCC 28188); test: Time-Kill test (Example 9); assay type: cell-based; conditions: Study 506-103
Procedure: (§10) A panel of “challenge microorganisms,” including select bacteria, yeast, and fungi was used to assess the disinfecting properties of test compounds, e.g., AMC (DPT Laboratories). […] The procedure was based on the ASTM procedure entitled, “Standard Test Method for the Assessment of Microbial Activity of Test Materials Using Time-Kill Procedure.”
(§11) A single lot of test material was prepared at various concentrations, along with multiple compounds prepared in various concentrations and combinations. These test materials were tested in duplicate against various bacteria, yeast and fungi. To minimize potential buffer interference and to minimize reduction of antimicrobial activity, the volume of the inoculum added to the test material was maintained at, or below, 1% of the total volume of the test. Samples were removed at various contact times. Serial dilutions were performed, and duplicate aliquots were plated. The plates were then incubated, and the average colony forming units (CFU) recovered per milliliter were determined for each contact time. The contact times for the test compounds with S. aureus, E. coli, P. aeruginosa, and C. albicans were 30 sec, 1 min, and 5 min. The contact times for the test compounds with B. subtilis were 1 and 10 min, 1 h, 2 h, 3 h, and 24 h. The contact times for the test compounds with T. rubrum were 30 sec, 1 min and 10 min. The contact temperature was ambient room temperature (20-21° C.).
The fungus, T. rubrum, was inoculated onto Emmon's agar (EA) and incubated at 25-30° C. for 10-15 days. The mycelial mats from mature cultures were removed from the surface of at least 5 plates and macerated with sterile saline (SS) in a sterile glass tissue grinder. The suspension was filtered through sterile glass wool to remove the hyphae.
The density of the conidial suspension was determined by serially diluting the prepared culture in BPDW. Aliquots from selected dilutions were plated on duplicate EA plates. The plates were incubated for 3-5 days at 25-30° C. and then each plate was examined for enumeration.
The suspension was stored at 2-10° C. for 4 weeks before use. On the day of testing, the suspension was adjusted to yield approximately 5.0×10^8 CFU by dilution with BPDW.
(§12) Compliant with the ASTM procedure cited above, the challenge microorganism was added to the test material by dispensing 99 ml of the test material into two sterile flasks, each containing a stir bar. The reaction flasks were allowed to equilibrate to the test temperature for at least 10 minutes. The flasks were placed in water baths on stir plates and maintained at the test temperature with stirring. A 1 ml aliquot of the prepared inoculum of the challenge microorganism was added to each flask to begin the contact period. At each contact time, 1 ml aliquot samples were removed and added to tubes containing 9 ml PBDW+. Serial 10-fold dilutions of each sample were then prepared in PBDW dilution blanks. Duplicate aliquots from selected dilutions were plated using the appropriate agar.
(§13) Upon completion of all contact periods, all plates were inverted and incubated for the appropriate time and temperature as follows: bacteria and yeast were incubated over 2 nights at 37° C.±2° C., and the fungus was incubated for at least 5 nights at 25-30° C. Following incubation, all plates were removed, the colonies were counted and the CFU recovered per ml at each contact time were calculated.

[6] = system: Candida albicans (ATCC 10231); test: Time-Kill test (Example 9); assay type: cell-based; conditions: Study 506-103
Procedure: as §10, §11
Bacteria and C. albicans from stock cultures were transferred into trypticase soya broth (TSB) and incubated for 18-24 hours at 37° C.±2° C. A second transfer was made onto Trypticase Soya Agar (TSA). The plate was removed from incubation and the growth was washed from the agar surface with Butterfield's Phosphate Buffered Dilution Water (PBDW). The microbe concentration was measured using a spectrophotometric technique well-known in the art. The suspension was subsequently adjusted to contain approximately 10^8 colony forming units (CFU) per ml. • 2.
as §12, §13
For each challenge microorganism, 99 ml of PBDW was dispensed into a sterile flask, and a 1 ml aliquot of prepared inoculum was added to the flask with stirring.

C. albicans = test: MIC and MBC determination by doubling dilutions (Study 509-102); assay type: cell-based; conditions: Candida albicans, Inoculum Counts: 6.6 × 10^5
From the text: as §1, §2

[7] = Study 509-102, Inoculum Counts: 3.6 × 10^8
[8] = Trichophyton rubrum, ATCC28188, read-out: MFC
[9] = Candida albicans, ATCC10231, 80% reduction in growth, read-out: MIC
[10] = Candida albicans, ATCC10231, read-out: MFC
[11] = Trichophyton rubrum, Study 509-102, Inoculum Counts: 3.6 × 10^8

## C[C@@H]1[C@H](O)[C@@H](C)/C=C/C=C/C=C/C=C/C=C/C=C/C=C/[C@H](O[C@@H]2O[C@H](C)[C@@H](O)[C@H](N)[C@@H]2O)C[C@@H]2O[C@](O)(C[C@@H](O)C[C@@H](O)[C@H](O)CC[C@@H](O)C[C@@H](O)CC(=O)O[C@H]1C)C[C@H](O)[C@H]2C(=O)O [Amphotericin B]
T. rubrum ATCC 28188 [1]
  MIC: 0.25 µg/mL (≈ 0.271 µM)
  MFC: 0.5 µg/mL (≈ 0.541 µM)
  fungicidal activity: Fungicidal activity was observed
C. albicans ATCC 10231 [2]
  MFC: 0.5 µg/mL (≈ 0.541 µM)
  fungicidal activity: Fungicidal activity
C. albicans ATCC 10231 [2]; 80% reduction in growth
  MIC: 0.25 µg/mL (≈ 0.271 µM)
T. rubrum ATCC 28188 [3]
  MFC: 0.5 µg/mL (≈ 0.541 µM)
  fungicidal activity: Fungicidal activity was observed
T. rubrum ATCC 28188 [3]; 80% reduction in growth, amphotericin B complete inhibition
  MIC: 0.25 µg/mL (≈ 0.271 µM)
C. albicans ATCC 10231 [4]; 80% reduction in growth
  MIC: 0.12 µg/mL (≈ 0.13 µM)
C. albicans ATCC 10231 [4]; 99.9% inhibition of growth
  MFC: 0.12 µg/mL (≈ 0.13 µM)
C. albicans ATCC 10231 [4]
  fungicidal activity: Fungal activity
T. rubrum; [7]
  MBC (ppm): >0.25 ppm
  MIC (ppm): >0.25 ppm
T. rubrum; Table 23, row head prints μg/mL
  MIC Against T. rubrum: >0.25 µg/mL
[5]; 30 sec. contact
  Log10 Reduction: 1.0 Log10
[5]; 30 sec. contact, initial 1.0 × 10^6 CFU/ml, Amphotericin B 2.5 mg/L
  CFUs recovered per milliliter of T. rubrum culture: 1.0 × 10^5 CFU/ml and 1.1 × 10^5 CFU/ml
[5]; 60 sec. contact
  CFUs recovered per milliliter of T. rubrum culture: 6.9 × 10^4 CFU/ml and 8.7 × 10^4 CFU/ml
  Log10 Reduction: 1.2 Log10 and 1.1 Log10
[5]; 10 min. contact
  Log10 Reduction: 1.0 Log10

## OC(Cn1cncn1)(Cn1cncn1)c1ccc(F)cc1F [Fluconazole]
T. rubrum ATCC 28188 [1]
  fungicidal activity: did not demonstrate fungicidal activity
T. rubrum ATCC 28188 [1]; Trichophyton rubrum, ATCC28188, read-out: MIC
  MIC: 2 µg/mL (≈ 6.53 µM)
T. rubrum ATCC 28188 [1]; [8]
  MFC: 8 µg/mL (≈ 26.1 µM)
C. albicans ATCC 10231 [2]; [9]
  MIC: 0.5 µg/mL (≈ 1.63 µM)
C. albicans ATCC 10231 [2]; [10]
  MFC: 1 µg/mL (≈ 3.27 µM)
C. albicans ATCC 10231 [2]
  fungicidal activity: Fungicidal activity
T. rubrum ATCC 28188 [3]
  fungicidal activity: did not demonstrate fungicidal activity
T. rubrum ATCC 28188 [3]; Trichophyton rubrum, ATCC28188, 80% reduction in growth, amphotericin B complete inhibition, read-out: MIC
  MIC: 2 µg/mL (≈ 6.53 µM)
T. rubrum ATCC 28188 [3]; [8]
  MFC: 64 µg/mL (≈ 209 µM)
C. albicans ATCC 10231 [4]; [9]
  MIC: 0.5 µg/mL (≈ 1.63 µM)
C. albicans ATCC 10231 [4]; Candida albicans, ATCC10231, 99.9% inhibition of growth, read-out: MFC
  MFC: 2 µg/mL (≈ 6.53 µM)
C. albicans ATCC 10231 [4]
  fungicidal activity: not considered fungicidal
[6]; 30 sec. contact
  Log10 Reduction: <1.0 Log10
[6]; 30 sec. contact, initial 3.0 × 10^7 CFU/ml, Fluconazole 2 mg/ml
  CFUs recovered per milliliter of C. albicans culture: 3.0 × 10^6 CFU/ml
[6]; 60 sec. contact
  CFUs recovered per milliliter of C. albicans culture: 3.0 × 10^6 CFU/ml
  Log10 Reduction: <1.0 Log10
[6]; 5 min. contact
  CFUs recovered per milliliter of C. albicans culture: 3.0 × 10^6 CFU/ml
  Log10 Reduction: <1.0 Log10

## Clc1ccc(COC(Cn2ccnc2)c2ccc(Cl)cc2Cl)c(Cl)c1 (centres unmarked) [Miconazole]
T. rubrum; [11]
  MBC: 0.25 µg/mL (≈ 0.601 µM)
  MIC: 0.25 µg/mL (≈ 0.601 µM)
C. albicans
  MBC: 2 µg/mL (≈ 4.81 µM)
  MIC: 2 µg/mL (≈ 4.81 µM)

## CN(C/C=C/C#CC(C)(C)C)Cc1cccc2ccccc12 [Terbinafine]
C. albicans ATCC 10231 [2]; 80% reduction in growth
  MIC: >0.5 µg/mL
C. albicans ATCC 10231 [2]; [9]
  MIC: > 0.5 µg/mL
C. albicans ATCC 10231 [2]; [10]
  MFC: > 0.5 µg/mL
C. albicans ATCC 10231 [2]
  fungicidal activity: Fungicidal activity
T. rubrum ATCC 28188 [3]
  fungicidal activity: did not demonstrate fungicidal activity
T. rubrum ATCC 28188 [3]; Trichophyton rubrum, ATCC28188, read-out: MIC (μg/ml), read at 50% inhibition of growth, terbinafine, 50% reading
  MIC: 0.008 µg/mL (≈ 0.0275 µM)
T. rubrum ATCC 28188 [3]; Trichophyton rubrum, ATCC28188, read-out: MIC (μg/ml), read at 90% inhibition of growth, terbinafine, 90% reading
  MIC: 0.032 µg/mL (≈ 0.11 µM)
T. rubrum ATCC 28188 [3]; [8]
  MFC: 0.125 µg/mL (≈ 0.429 µM)
